# Read-outs that look alike come from different tables or passages of the source.
# How the values were obtained:
# K-562 = assay: SRB colorimetric cell growth inhibition assay, K-562; format: cell-based; details: Homo sapiens; for GI50: GI=growth inhibition, read-out: GI50 K-562; for IC (TGI): read-out: TGI K-562
# In short: (§1)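 Tested samples remained on human cancer cell cultures throughout the incubation; viable biomass was then stained with SRB and read colorimetrically.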
# A-549 = assay: SRB colorimetric cell growth inhibition assay, A-549; format: cell-based; details: Homo sapiens; for GI50: GI=growth inhibition, read-out: GI50 A-549; for IC (TGI): read-out: TGI A-549
# In short: as §1
# SK-MEL-28 = assay: SRB colorimetric cell growth inhibition assay, SK-MEL-28; format: cell-based; details: Homo sapiens; for GI50: GI=growth inhibition, read-out: GI50 MEL-28; for CC50: cell killing (cytotoxic effect); for IC (TGI): total growth inhibition (cytostatic effect), read-out: TGI MEL-28
# In short: as §1
# HT-29 = assay: SRB colorimetric cell growth inhibition assay, HT-29; format: cell-based; details: Homo sapiens; for GI50: GI=growth inhibition, read-out: GI50 HT-29; for IC (TGI): read-out: TGI HT-29
# In short: as §1
# LoVo = assay: SRB colorimetric cell growth inhibition assay, LoVo; format: cell-based; details: Homo sapiens; for GI50: GI=growth inhibition, read-out: GI50 LOVO; for IC (TGI): read-out: TGI LOVO
# In short: as §1
# LoVo-Dox = assay: SRB colorimetric cell growth inhibition assay, LoVo-Dox (MDR); format: cell-based; details: Homo sapiens; for GI50: GI=growth inhibition, read-out: GI50 LOVO-DOX; for IC (TGI): read-out: TGI LOVO-DOX
# In short: as §1
# DU-145 = assay: SRB colorimetric cell growth inhibition assay, DU-145; format: cell-based; details: Homo sapiens; for CC50: cell killing (cytotoxic effect); for GI50: GI=growth inhibition, read-out: GI50 DU-145; for IC (TGI): total growth inhibition (cytostatic effect), read-out: TGI DU-145
# In short: as §1
# LNCaP = assay: SRB colorimetric cell growth inhibition assay, LNCaP; format: cell-based; details: Homo sapiens, LNCaP; for GI50: GI=growth inhibition, read-out: GI50 LN-caP; for CC50: cell killing (cytotoxic effect); for IC (TGI): total growth inhibition (cytostatic effect), read-out: TGI LN-caP
# In short: as §1
# SK-BR-3 = assay: SRB colorimetric cell growth inhibition assay, SK-BR-3; format: cell-based; details: Homo sapiens; for CC50: cell killing (cytotoxic effect); for GI50: GI=growth inhibition, read-out: GI50 SK-BR-3; for IC (TGI): total growth inhibition (cytostatic effect), read-out: TGI SK-BR-3
# In short: as §1
# IGROV = assay: SRB colorimetric cell growth inhibition assay, IGROV; format: cell-based
# In short: as §1
# IGROV-ET = assay: SRB colorimetric cell growth inhibition assay, IGROV-ET (ET-743 resistant); format: cell-based; details: Homo sapiens; for GI50: GI=growth inhibition, read-out: GI50 IGROV-ET; for CC50: cell killing (cytotoxic effect); for IC (TGI): total growth inhibition (cytostatic effect), read-out: TGI IGROV-ET
# In short: as §1
# PANC-1 = assay: SRB colorimetric cell growth inhibition assay, PANC-1; format: cell-based; details: Homo sapiens; for IC (TGI): read-out: TGI PANC-1; for GI50: GI=growth inhibition, read-out: GI50 PANC-1
# In short: as §1
# human topoisomerase I = biological target: T1, human topoisomerase I (Homo sapiens, UniProt P11387); assay: Topoisomerase I DNA relaxation assay (supercoiled plasmid DNA); format: biochemical; details: supercoiled plasmid DNA, each compound tested at 1 μM, agarose gel with ethidium bromide
# T1 sequence (P11387 1-765): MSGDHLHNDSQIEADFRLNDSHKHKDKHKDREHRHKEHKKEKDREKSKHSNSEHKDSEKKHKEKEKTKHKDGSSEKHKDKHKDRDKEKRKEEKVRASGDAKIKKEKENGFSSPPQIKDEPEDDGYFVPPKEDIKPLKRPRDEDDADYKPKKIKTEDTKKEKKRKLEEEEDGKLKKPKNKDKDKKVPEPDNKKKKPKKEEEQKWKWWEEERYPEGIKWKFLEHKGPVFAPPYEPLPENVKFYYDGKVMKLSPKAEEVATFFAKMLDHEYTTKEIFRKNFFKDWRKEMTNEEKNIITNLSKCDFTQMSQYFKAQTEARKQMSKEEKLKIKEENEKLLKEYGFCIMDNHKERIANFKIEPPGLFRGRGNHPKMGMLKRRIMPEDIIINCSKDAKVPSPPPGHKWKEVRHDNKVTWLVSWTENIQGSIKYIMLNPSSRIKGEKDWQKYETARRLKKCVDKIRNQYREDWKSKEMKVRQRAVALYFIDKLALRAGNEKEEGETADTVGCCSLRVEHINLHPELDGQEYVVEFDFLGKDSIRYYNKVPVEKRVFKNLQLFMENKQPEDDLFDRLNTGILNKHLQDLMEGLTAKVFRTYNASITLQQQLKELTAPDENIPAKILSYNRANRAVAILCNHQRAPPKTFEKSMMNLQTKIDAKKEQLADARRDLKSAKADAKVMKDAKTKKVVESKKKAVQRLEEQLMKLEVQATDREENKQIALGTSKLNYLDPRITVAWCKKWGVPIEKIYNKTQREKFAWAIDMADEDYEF
# In short: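 Test compounds (1 μM each) were present during topoisomerase I relaxation of supercoiled plasmid DNA. Relaxation was assessed on ethidium bromide-stained agarose gels.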
compound,measurement,setting,value
COc1cc(-c2c3n(c4c(=O)oc5cc(OC(=O)[C@@H](N)Cc6c[nH]c7ccccc67)c(OC)cc5c24)CCc2cc(OC(=O)[C@@H](N)Cc4c[nH]c5ccccc45)c(OC)cc2-3)ccc1OC(=O)[C@@H](N)Cc1c[nH]c2ccccc12 [Compound 24],GI50,"K-562; K562, K-562",680 nM
same,CC50,"K-562; K562, K-562, cell killing (cytotoxic effect), read-out: LC50 K-562",5300 nM
same,IC (TGI),"K-562; K562, K-562, total growth inhibition (cytostatic effect)",1910 nM
same,GI50,"A-549; A549, A-549",1550 nM
same,CC50,"A-549; A549, A-549, cell killing (cytotoxic effect), read-out: LC50 A-549",7130 nM
same,IC (TGI),"A-549; A549, A-549, total growth inhibition (cytostatic effect)",3370 nM
same,GI50,"SK-MEL-28; SK-MEL-28, MEL-28",1380 nM
same,CC50,"SK-MEL-28; SK-MEL-28, MEL-28, read-out: LC50 MEL-28",5740 nM
same,IC (TGI),"SK-MEL-28; SK-MEL-28, MEL-28",2810 nM
same,CC50,"HT-29; HT-29, HT-29, cell killing (cytotoxic effect), read-out: LC50 HT-29",7130 nM
same,GI50,HT-29; HT-29,7130 nM
same,IC (TGI),"HT-29; HT-29, total growth inhibition (cytostatic effect)",7130 nM
same,CC50,"LoVo; LoVo, cell killing (cytotoxic effect), read-out: LC50 LOVO",4280 nM
same,GI50,LoVo; LOVO,749 nM
same,IC (TGI),"LoVo; LOVO, total growth inhibition (cytostatic effect)",1780 nM
same,GI50,LoVo-Dox; LOVO-DOX,891 nM
same,CC50,"LoVo-Dox; LOVO-DOX, cell killing (cytotoxic effect), read-out: LC50 LOVO-DOX",7130 nM
same,IC (TGI),"LoVo-Dox; LOVO-DOX, total growth inhibition (cytostatic effect)",3660 nM
same,CC50,"DU-145; DU-145, DU-145, read-out: LC50 DU-145",7130 nM
same,GI50,DU-145; DU-145,913 nM
same,IC (TGI),DU-145; DU-145,2940 nM
same,GI50,LNCaP; LN-caP,934 nM
same,CC50,"LNCaP; LN-caP, read-out: LC50 LN-caP",3890 nM
same,IC (TGI),LNCaP; LN-caP,1910 nM
same,CC50,"SK-BR-3; SK-BR-3, SK-BR-3, read-out: LC50 SK-BR-3",5580 nM
same,GI50,SK-BR-3; SK-BR-3,653 nM
same,IC (TGI),SK-BR-3; SK-BR-3,1930 nM
same,CC50,"IGROV; Homo sapiens, IGROV; cell killing (cytotoxic effect); read-out: LC50 IGROV",7130 nM
same,GI50,IGROV; Homo sapiens; IGROV; GI=growth inhibition; read-out: GI50 IGROV,1230 nM
same,IC (TGI),IGROV; Homo sapiens; IGROV; total growth inhibition (cytostatic effect); read-out: TGI IGROV,4820 nM
same,GI50,IGROV-ET; IGROV-ET,1310 nM
same,CC50,"IGROV-ET; IGROV-ET, read-out: LC50 IGROV-ET",7130 nM
same,IC (TGI),IGROV-ET; IGROV-ET,7130 nM
same,CC50,"PANC-1; PANC-1, PANC-1, cell killing (cytotoxic effect), read-out: LC50 PANC-1",7130 nM
same,IC (TGI),"PANC-1; PANC-1, PANC-1, total growth inhibition (cytostatic effect)",6230 nM
same,GI50,PANC-1; PANC-1,1340 nM
same,stimulation of DNA cleavage by topoisomerase I / inhibition of topoisomerase I (nicked DNA band) in DNA relaxation assay,human topoisomerase I,inhibit topoisomerase I
COc1cc(-c2c3n(c4c(=O)oc5cc(OC(=O)[C@H](N)C(C)C)c(OC)cc5c24)CCc2cc(OC(=O)[C@H](N)C(C)C)c(OC)cc2-3)ccc1OC(=O)[C@H](N)C(C)C [Compound 32],GI50,"K-562; K562, K-562",673 nM
same,IC (TGI),"K-562; K562, K-562, TGI=total growth inhibition (cytostatic effect)",2430 nM
same,CC50,"K-562; K562, read-out: LC50 K-562, K-562, LC=cell killing (cytotoxic effect)",8310 nM
same,GI50,"A-549; A549, A-549",1530 nM
same,IC (TGI),"A-549; A549, A-549, TGI=total growth inhibition (cytostatic effect)",3340 nM
same,CC50,"A-549; A549, read-out: LC50 A-549, A-549, LC=cell killing (cytotoxic effect)",7330 nM
same,GI50,"SK-MEL-28; SK-MEL-28, MEL-28",1350 nM
same,IC (TGI),"SK-MEL-28; SK-MEL-28, MEL-28",2870 nM
same,CC50,"SK-MEL-28; SK-MEL-28, read-out: LC50 MEL-28, MEL-28",6130 nM
same,GI50,"HT-29; HT-29, HT-29",2660 nM
same,IC (TGI),"HT-29; HT-29, HT-29, TGI=total growth inhibition (cytostatic effect)",5300 nM
same,CC50,"HT-29; HT-29, read-out: LC50 HT-29, HT-29, LC=cell killing (cytotoxic effect)",8760 nM
same,CC50,"LoVo; LoVo, read-out: LC50 LOVO, LOVO, LC=cell killing (cytotoxic effect)",6310 nM
same,GI50,LoVo; LoVo,392 nM
same,IC (TGI),"LoVo; LoVo, TGI=total growth inhibition (cytostatic effect)",1650 nM
same,GI50,LoVo-Dox; LOVO-DOX,671 nM
same,IC (TGI),"LoVo-Dox; LOVO-DOX, TGI=total growth inhibition (cytostatic effect)",2420 nM
same,CC50,"LoVo-Dox; read-out: LC50 LOVO-DOX, LOVO-DOX, LC=cell killing (cytotoxic effect)",8250 nM
same,GI50,"DU-145; DU-145, DU-145",111 nM
same,IC (TGI),"DU-145; DU-145, DU-145",309 nM
same,CC50,"DU-145; DU-145, read-out: LC50 DU-145, DU-145",857 nM
same,GI50,LNCaP; LN-caP,429 nM
same,IC (TGI),LNCaP; LN-caP,1670 nM
same,CC50,"LNCaP; read-out: LC50 LN-caP, LN-caP",5080 nM
same,GI50,"SK-BR-3; SK-BR-3, SK-BR-3",1300 nM
same,IC (TGI),"SK-BR-3; SK-BR-3, SK-BR-3",3190 nM
same,CC50,"SK-BR-3; SK-BR-3, read-out: LC50 SK-BR-3, SK-BR-3",7820 nM
same,CC50,"IGROV; Homo sapiens, IGROV, read-out: LC50 IGROV, IGROV; cell killing (cytotoxic effect)",6120 nM
same,GI50,"IGROV; Homo sapiens, IGROV; GI=growth inhibition; read-out: GI50 IGROV",561 nM
same,IC (TGI),"IGROV; Homo sapiens, IGROV; total growth inhibition (cytostatic effect); read-out: TGI IGROV",2060 nM
same,GI50,IGROV-ET; IGROV-ET,666 nM
same,IC (TGI),IGROV-ET; IGROV-ET,3010 nM
same,CC50,"IGROV-ET; read-out: LC50 IGROV-ET, IGROV-ET",8760 nM
same,GI50,"PANC-1; PANC-1, PANC-1",316 nM
same,IC (TGI),"PANC-1; PANC-1, PANC-1, TGI=total growth inhibition (cytostatic effect)",1380 nM
same,CC50,"PANC-1; PANC-1, read-out: LC50 PANC-1, PANC-1, LC=cell killing (cytotoxic effect)",8760 nM
same,stimulation of DNA cleavage by topoisomerase I / inhibition of topoisomerase I (nicked DNA band) in DNA relaxation assay,human topoisomerase I,No effect

# Source: patent US7396837B2, “Antitumoral analogs of lamellarins” (Pharma Mar, S.A.U., priority 2002, dated 2008)
